Patent publication EP0590998A1, “1-Styryl-3-t-butyl-1,3-propanedione derivative and external preparation for skin using the same” (SHISEIDO COMPANY LIMITED, priority 1992, dated 1994)

Key:
[1] = Solubility of the 10% compounds in silicone base and squalane at room temperature; assay type: physicochemical; design: key: The compounds which can completely be dissolved in the solvents are indicated as ○; settings: room temperature (25°C); for SOLUBILITY SILICONE KF56(10%): 10% compound in SILICONE KF56 (10cs); for SOLUBILITY SQUALANE(10%): 10% compound in squalane
Text: Solubilities of the following compounds 1 to 5 as examples of the 1-styryl-3-t-butyl-1,3-propanedione derivative and 2-hydroxy-4-methoxybenzophenone as a comparison are examined using the SILICONE KF56 (10cs; SHINETHU KACAKU INC.) as silicone base and squalane. Compound 1 : 1-styryl-3-t-butyl 1,3-propanedione Compound 2 : 1-p-methoxystyryl-3-t-butyl 1,3-propanedione Compound 3 : 1-p-(2-ethylhexyloxy)styryl-3-t-butyl 1,3-propanedione Compound 4 : 1-p-ethylstyryl-3-t-butyl1,3-propanedione compound 5 : 1-m-methylstyryl-3-t-butyl1,3-propanedione
The compounds which can completely be dissolved in the solvents are indicated as ○.

[2] = Ultraviolet ray absorption, spectrophotometer, 10ppm in ethanol; assay type: physicochemical; design: key: absorbance of 10 ppm ethanol solution, 10 mm quartz cell; settings: 10ppm in ethanol (99.5%), quartz cell 10mm×10mm
Experimental: Ultraviolet ray absorptivities of the compound 1,3,5 and comparison (2-hydroxy-4-methoxybenzophenone; UV-A absorbent) were measured according to the following method.
The compound 1,3,5 and the comparison compound were dissolved in ethanol (99.5%) so as to the concentration being 10ppm, and absorption were measured by using quartz cell (10mm×10mm) and the spectrophotometer UVIDEC-610 (JASCO CORPORATION).

Row | SMILES | SOLUBILITY SILICONE KF56(10%) [1] | SOLUBILITY SQUALANE(10%) [1] | absorption ([2]; WAVELENGTH 300) | absorption ([2]; WAVELENGTH 310) | absorption ([2]; WAVELENGTH 320) | absorption ([2]; WAVELENGTH 330) | absorption ([2]; WAVELENGTH 340) | absorption ([2]; WAVELENGTH 350) | absorption ([2]; WAVELENGTH 360) | absorption ([2]; WAVELENGTH 370) | absorption ([2]; WAVELENGTH 380)
1 | Cc1cccc(C=CC(=O)CC(=O)C(C)(C)C)c1 [Compound 5, 1-m-methylstyryl-3-t-butyl1,3-propanedione] | ○ | ○ | 0.50 | 0.72 | 1.00 | 1.26 | 1.36 | 1.24 | 0.98 | 0.54 | 0.32
2 | COc1ccc(C(=O)c2ccccc2)c(O)c1 [COMPARISON 1, 2-hydroxy-4-methoxybenzophenone, reference compound] | DEPOSITION | DEPOSITION | – | – | – | – | – | – | – | – | –
3 | CCc1ccc(C=CC(=O)CC(=O)C(C)(C)C)cc1 [Compound 4, 1-p-ethylstyryl-3-t-butyl1,3-propanedione] | ○ | ○ | – | – | – | – | – | – | – | – | –
4 | CCCCC(CC)COc1ccc(C=CC(=O)CC(=O)C(C)(C)C)cc1 (stereo not drawn) [Compound 3, 1-p-(2-ethylhexyloxy)styryl-3-t-butyl 1,3-propanedione] | ○ | ○ | 0.20 | 0.28 | 0.40 | 0.56 | 0.76 | 0.92 | 0.97 | 0.89 | 0.65
5 | CC(C)(C)C(=O)CC(=O)C=Cc1ccccc1 [Compound 1, 1-styryl-3-t-butyl 1,3-propanedione] | ○ | ○ | 0.60 | 0.82 | 1.08 | 1.33 | 1.40 | 1.24 | 0.96 | 0.50 | 0.26
6 | COc1ccc(C=CC(=O)CC(=O)C(C)(C)C)cc1 [Compound 2, 1-p-methoxystyryl-3-t-butyl 1,3-propanedione] | ○ | ○ | – | – | – | – | – | – | – | – | –
